# According to patent US5545642A, “Derivatives of 1-(2-fluorocyclopropyl)-quinolonecarboxylic acid and 1-(2-fluorocyclopropyl)-naphthridonecarboxylic acid” (Bayer Aktiengesellschaft, priority 1993, dated 1996):
# Read-outs that look alike come from different tables or passages of the source.
# Columns and labels:
# Escherichia coli Neumann = experiment: MIC, agar serial dilution (Iso-Sensitest agar), Escherichia coli Neumann; type: cell-based; conditions: 37° C., about 20 hours
# Procedure: (§1) The minimum inhibitory concentrations (MIC) were determined on Iso-Sensitest agar (Oxoid) using a serial dilution method. For each substance to be tested, a series of agar plates was prepared, which plates contained diminishing concentrations of the active compound produced in each case by a doubling dilution. The agar plates were inoculated using a Multipoint Inoculator (Denley). For the inoculation, overnight cultures of the pathogens were used which had been diluted beforehand such that each inoculation point contained approximately 10^4 colony-forming particles. The inoculated agar plates were incubated at 37° C. and the growth of organisms recorded after about 20 hours. The MIC value (μg/ml) indicates the lowest concentration of active compound at which no growth was visible to the naked eye. […] Example 8 from European Patent Application 520 277): […]
# Klebsiella sp. 8085 = experiment: MIC, agar serial dilution (Iso-Sensitest agar), Klebsiella sp. 8085; type: cell-based; conditions: 37° C., about 20 hours
# Procedure: as §1
# Morganella morganii 932 = experiment: MIC, agar serial dilution (Iso-Sensitest agar), Morganella morganii 932; type: cell-based; conditions: 37° C., about 20 hours
# Procedure: as §1
# Providencia sp. 12012 = experiment: MIC, agar serial dilution (Iso-Sensitest agar), Providencia sp. 12012; type: cell-based; conditions: 37° C., about 20 hours
# Procedure: as §1
# Micrococcus luteus 9341 = experiment: MIC, agar serial dilution (Iso-Sensitest agar), Micrococcus luteus 9341; type: cell-based; conditions: 37° C., about 20 hours
# Procedure: as §1
# [1] = system: Staphylococcus aureus ICB 25701; experiment: MIC, agar serial dilution (Iso-Sensitest agar), Staphylococcus aureus ICB 25701; type: cell-based; conditions: about 20 hours
# Procedure: as §1
# [2] = system: Staphylococcus aureus 133; experiment: MIC, agar serial dilution (Iso-Sensitest agar), Staphylococcus aureus 133; type: cell-based; conditions: 37° C., about 20 hours
# Procedure: as §1
# [3] = system: Enterococcus faecalis 27101; experiment: MIC, agar serial dilution (Iso-Sensitest agar), Enterococcus faecalis 27101; type: cell-based; conditions: 37° C., about 20 hours
# Procedure: as §1
# CFl mice = experiment: LD50 following intravenous administration to CFl mice (tolerance); type: in vivo
# Procedure: (§2) The LD50 values listed in this table were determined following intravenous administration of the substances to CFl mice. The ID50 is understood to be the concentration of a substance at which the DNA synthesis in Chinese hamster ovary cells (CHO-KI) is inhibited by 50%. This value is determined following incubation of the corresponding substances in descending dilution steps for defined periods. For this purpose, the DNA synthesis in CHO-KI cells is determined in comparison to controls using fluorophotometric methods.
# in vitro = type: cell-based, Chinese hamster; conditions: hamster, cho-k1 cells
# Procedure: as §2
# [4] = LD50 following intravenous administration to CFl mice (tolerance); type: in vivo; conditions: mouse, in vivo, iv
# Procedure: as §2
# [5] = system: Chinese hamster ovary cells (CHO-KI); experiment: in vitro; type: cell-based; conditions: cho-k1 cells
# Procedure: as §2
# [6] = Escherichia coli, 20 h, read-out: MIC
# [7] = Micrococcus luteus, 9341, 20 h, read-out: MIC
# [8] = ICB25701, 37° C., read-out: MIC
Compound,MIC (Escherichia coli Neumann; [6]) [µg/mL],MIC (Klebsiella sp. 8085; read-out: MIC) [µg/mL],MIC (Morganella morganii 932; read-out: MIC) [µg/mL],MIC (Providencia sp. 12012; read-out: MIC) [µg/mL],MIC (Micrococcus luteus 9341; [7]) [µg/mL],"MIC [1, 8] [µg/mL]",MIC ([2]; read-out: MIC) [µg/mL],MIC ([3]; read-out: MIC) [µg/mL],LD50 (CFl mice) [mg/kg],IC50 (in vitro) [µg/mL],LD50 [4] [mg/kg],MIC (Escherichia coli Neumann) [µg/mL],MIC (Klebsiella sp. 8085) [µg/mL],MIC (Morganella morganii 932) [µg/mL],MIC (Providencia sp. 12012) [µg/mL],MIC (Micrococcus luteus 9341) [µg/mL],MIC ([1]; 37° C.) [µg/mL],MIC [2] [µg/mL],MIC [3] [µg/mL],ID50 (concentration at which DNA synthesis is inhibited by 50%) [5] [µg/mL]
"CN1CCC2=C(C1)CN(c1c(F)cc3c(=O)c(C(=O)O)cn([C@@H]4C[C@@H]4F)c3c1F)C2 (single isomer, unassigned) [Example 2, (-)-6,8-difluoro-1-(cis-2-fluorocyclopropyl)-1,4-dihydro-7-(5-methyl-2,3,4,5,6,7-hexahydro-1H-pyrrolo[3,4-c]pyridin-2-yl)-4-oxo-3-quinolinecarboxylicacid]",0.03,0.06,0.06,0.06,0.25,0.5,0.06,0.06,200,40,,,,,,,,,,
"CN1CCC2=C(C1)CN(c1c(F)cc3c(=O)c(C(=O)O)cn([C@@H]4C[C@@H]4F)c3c1F)C2 (relative stereo) [Example 1, 6,8-difluoro-1-(cis-2-fluorocyclopropyl)-1,4-dihydro-7-(5-methyl-2,3,4,5,6,7-hexahydro-1H-pyrrolo[3,4-c]pyridin-2-yl)-4-oxo-3-quinolinecarboxylic acid]",≤ 0.015,0.06,0.03,0.06,0.25,0.5,0.06,0.06,,35,150,,,,,,,,,
"CN1CCC2=C(C1)CN(c1c(F)cc3c(=O)c(C(=O)O)cn(C4CC4)c3c1Cl)C2 [Ref. 2, 8-chloro-1-cyclopropyl-6-fluoro-1,4-dihydro-7-(5-methyl-2,3,4,5,6,7-hexahydro-1H-pyrrolo[3,4-c]pyridin-2-yl)-4-oxo-3-quino-1-linecarboxylic acid, reference compound]",0.03,0.06,0.06,0.125,0.25,0.5,0.03,0.06,,16,50,,,,,,,,,
"CN1CCC2=C(C1)CN(c1c(F)cc3c(=O)c(C(=O)O)cn([C@@H]4C[C@@H]4F)c3c1Cl)C2 (relative stereo) [Example 4, 8-chloro-6-fluoro-1-(cis-2-fluorocyclopropyl)-1,4-dihydro-7-(5-methyl-2,3,4,5,6,7-hexahydro-1H-pyrrolo[3,4-c]-pyridin-2-yl)-4-oxo-3-quinolinecarboxylic acid]",≤ 0.015,0.06,0.06,0.06,0.125,0.25,≤ 0.015,0.06,,,,,,,,,,,,
"CN1CCC2=C(C1)CN(c1c(F)cc3c(=O)c(C(=O)O)cn(C4CC4)c3c1F)C2.Cl [Ref. 1, 1-cyclopropyl-6,8-difluoro-1,4-dihydro-7-(5-methyl-2,3,4,5,6,7-hexahydro-1H-pyrrolo[3,4-c]pyridin-2-yl)-4-oxo-3-quinolinecarboxylic acid hydrochloride, reference compound]",≤ 0.015,0.06,0.03,0.125,0.5,1,0.6,0.125,,1,50,,,,,,,,,
"CN1CCC2=C(C1)CN(c1c(F)cc3c(=O)c(C(=O)O)cn([C@@H]4C[C@@H]4F)c3c1F)C2 (single isomer, unassigned) [Example 3, (+)-6,8-difluoro-1-(cis-2-fluorocyclopropyl)-1,4-dihydro-7-(5-methyl-2,3,4,5,6,7-hexahydro-1H-pyrrolo[3,4-c]pyridin-2-yl)-4-oxo-3-quinolinecarboxylicacid]",,,,,,,,,50,,,≤ 0.015,0.06,0.06,0.06,0.125,0.5,0.06,0.06,40
